Measurements published in patent US5851537A (priority 1997, dated 1998).
In brackets after ≈: the same amount, converted by molar mass.

Legend:
[1] = system: psoriasis and various cutaneous malignancies; conditions: cited from earlier work
[2] = system: cultured normal keratinocytes; conditions: in vitro; cited from earlier work
actinic keratoses (AKs) = assay: phase IIb study, number of actinic keratoses; format: in vivo, human; conditions: 10% (w/w) topical, six months, compared to placebo
From the text: (§1) Forty-eight participants with severe actinic keratoses (AKs) on their forearms (i.e. at least ten well circumscribed lesions nonlateral, sun-exposed surfaces) completed a one month run-in on placebo ointment applied twice daily to the affected areas. […] After six months of treatment, all measurements were repeated. […] The study was described at the thirty-second annual meeting of the American Society of Clinical Oncology on May 18-21, 1996.

mouse skin [3] = assay: in vitro transdermal penetration, mouse skin (diffusion cells); format: in vitro ADME, BALB/c mice
mouse epidermis = conditions: five percent solution, in vitro; cited from earlier work
psoriatic lesions = conditions: cited from earlier work
[4] = phase IIb study, α-DFMO in skin and blood
From the text: as §1

[5] = oral, humans; cited from earlier work
[6] = chemical stability of α-DFMO in cream, HPLC; format: physicochemical; conditions: Vanicream, 4° C., six month time point; 262800 min
Description: The reverse phase (C-18 column, Alitech Associates, 150 mm×4.6 mm, […]) assay was performed with a 30 minute gradient elution using two mobile phases (A and B) containing aqueous buffer and acetonitrile, respectively. Mobile phase A contained 100 mM sodium acetate, 15 mM triethylamine, and […] sodium EDTA dissolved in water at pH 5.0. Mobile phase B was acetonitrile UV® (Burdick & Jackson, Muskegon, Mich.). The starting proportion, A:B, was 92:8, at 18 min. it was 80:20; at 19-21 min. 40:60; and at 22-30 min. 92:8 [21]. The mobile phase was pumped at 1.2 mL/min. using a Perkin Elmer Biocompatible Binary Pump, a Hitachi AS-2000 Autosampler and a Hewlett Packard Series 1050 Solvent Programmer.
For the stability assays, the 10% cream formulation was stored at 4° C. for up to 6 months and 10 μL aliquots were removed weekly and analyzed by HPLC after extraction using 1 mL distilled water.

UVB induced skin cancer = conditions: cited from earlier work
BALB/c mice = assay: four week topical toxicity study in mice; format: in vivo
From the text: Adult female BALB/c mice, 25-31 gm. weight, were obtained from Jackson Laboratories, Bar Harbor, Me. For toxicology tests, the mice were housed 5/cage and received standard lab chow and tap water ad libitum. A 12-hour light/dark cycle in a humidified atmosphere was utilized. Toxicology Study A cohort of 20 mice were de-haired over a 2 cm^2 dorsal area using the topical depilatory agent, Nair® Lotion (Carter Wallace, Inc., New York, N.Y.). […] The daily dose was delivered by a positive displacement pipette (Micro-Man®, Gilson Scientific, Woburn, Mass.).
Using the murine total body surface area conversion nomogram of Freireich et al., the daily doses for the 3 cream concentrations of 1%, 5% and 10% were 71.4 mg/m^2, 357 mg/m^2, 714 mg/m^2. For the total four week period, the cumulative doses were 1.43 g/m^2, 7.14 g/m^2 and 14.28 g/m^2. […] The skin application sites were observed daily for evidence of any local toxicity (erythema, induration or ulceration) and the animals were weighed weekly. At the end of the four week treatment period, the mice were sacrificed by rapid cervical dislocation and blood samples were obtained for quantifying renal function (BUN, creatinine), hepatic function (SGOT-SGPT, bilirubin), electrolytes (Na^+ K^+ Cl^-, ^- HCO3^-), hematologic indices (WBC with differential, RBC, platelets) and glucose (Animal Diagnostic Laboratories,Tucson, Ariz.).

total polyamines = assay: phase IIb study, total polyamines; format: in vivo, human; conditions: 10% (w/w) topical, six months, compared to placebo
From the text: as §1

ornithine decarboxylase = conditions: time and concentration dependence, reversibility; cited from earlier work
[7] = in vivo
From the text: as §1

[8] = solubility limit in the vehicle; format: physicochemical; conditions: in the particular vehicle used
From the text: Having thus described the invention, it will be apparent to those of skill in the art that modifications can be made within the scope of the invention. […] Also, the vehicle cannot contain absorption enhancers.

human skin [9] = assay: in vitro transdermal penetration, human skin (diffusion cells); conditions: 24 hours, 37° C., 10% α-DFMO
[10] = oral, single 0.5 g/m^2 dose given daily, cited from earlier work
skin ODC = conditions: five of seven subjects, 6 hours after oral dosing, 0.5 g/m^2; cited from earlier work
human skin [11] = system: human skin
human skin [12] = assay: in vitro
Description: (§2) These were minced by scissors and then sonicated for 30 seconds in 100 μL of (0.4 m) HClO4 containing 10 mM internal standard GABA. To this mixture, 100 μL of water was added and the contents were then centrifuged at 10,000×G for 3 min. A 10 μL aliquot of supernatant was added to 40 μL of sodium tetraborate solution (pH 9.3) and mixed with […] the derivatizing agent 6-aminoquinolyi-N-hydroxysuccinimidyl carbamate. This mixture was then heated for 10 min. at 50° C. and a 20 μL aliquot was injected into the HPLC.

mouse skin [13] = assay: α-DFMO content of mouse skin samples; conditions: 10% α-DFMO in Vanicream, 37° C.
Description: as §2

in vitro = conditions: skin, topical or ocular
Description: as §2

[14] = ten percent cream with absorption enhancer, ten patients

CC(/C=N/NC(=N)N)=N\NC(=N)N [MGBG, mitoguazone]
skin irritation ([1]; in vivo): highly irritating
therapeutic effects in psoriasis and various cutaneous malignancies ([1]; topically or intralesionally): produces therapeutic effects
proliferation of cultured normal keratinocytes [2]: decrease the proliferation

NCCC[C@](N)(C(=O)O)C(F)F [α-DFMO, alpha-difluoromethylornithine]
reduction in the number of AKs (actinic keratoses (AKs)): 21%
uptake into and penetration through mouse skin (mouse skin [3]): significant α-DFMO uptake into and penetration through mouse skin
degree of transdermal penetration versus azone-containing formulation (mouse skin [3]; 10% α-DFMO in Vanicream, mice, vs 5% α-DFMO with azone): substantially less
calculated penetration rate (mouse skin [3]; mouse skin, 10% α-DFMO formulation in Vanicream): 3.6 μg/cm^2 /hour
mean percent uptake (transdermal penetration) (mouse skin [3]; mouse skin, 37° C., 24 hours, 10% α-DFMO): 61.53 % of the applied dose
time of maximal transdermal penetration (mouse skin [3]; mouse skin, 37° C., Vanicream): 24 h
time of maximal penetration (mouse skin [3]; mouse skin, hydrophilic ointment U.S.P., 37° C.): 12 h
putrescine levels (mouse epidermis): twenty-five
spermine and spermidine levels (mouse epidermis): not affected
synthesis of DNA (mouse epidermis): blocks the synthesis of DNA
systemic uptake (psoriatic lesions; human, in vivo): systemic uptake in the patients
improvement in psoriatic lesions (psoriatic lesions; [14]): marginal improvement
reduction of cutaneous spermine levels (psoriatic lesions; [14]): sixty-six
α-DFMO in blood ([4]; 10% (w/w) topical, six months): not detected in blood
systemic uptake ([4]; in vivo): no systemic uptake
treated forearms with high DFMO skin levels ([4]; in vivo): thirteen
ototoxicity [5]: associated with ototoxicity
loss of α-DFMO [6]: < 1%
body weight loss (UVB induced skin cancer; 1% drinking water solution): 16%
hyperactivity (UVB induced skin cancer; 1% drinking water solution): sound-induced hyperactivity
UVB induced skin cancer incidence (UVB induced skin cancer; 1% solution in drinking water, reduced from 38%): 9%
UVB-induced immunosuppression (UVB induced skin cancer; oral α-DFMO regimen, 1% in drinking water): prevented UVB-induced immunosuppression
drug related alterations in weight gain (BALB/c mice; mouse, in vivo): without drug related alterations in weight gain
hair regrowth (BALB/c mice; mouse, in vivo): proceeded normally
local skin irritation (BALB/c mice; mouse, in vivo): no evidence of local skin irritation
serum enzymes, electrolytes or hematologic parameters (BALB/c mice; mouse, in vivo): no alterations
survival (BALB/c mice; topical 1%, 5% or 10% cream, through the study period): survived through the study period
toxicity in mice (summary) (BALB/c mice; topical formulation): nontoxic in mice
suppression of total polyamines (total polyamines): 21%
inhibition of ornithine decarboxylase (ornithine decarboxylase): time and concentration dependent but is irreversible
participants with moderately severe skin rash [7]: one
participants with skin rash in the area of DFMO application [7]: Four
systemic toxicities [7]: no systemic toxicities
solubility [8]: ~220 mg/mL (≈ 1210 mM)
degree of penetration (human skin [9]): 0.7 % of the applied concentration
plasma concentration×time product [10]: 311 μm×hr
terminal phase half life [10]: 3.5 h
Cmax ([10]; read-out: peak α-DFMO plasma concentrations): 47.1 µM
reduction in skin ODC levels (skin ODC): ≥ 50%
time until transdermal human skin penetration apparent (human skin [11]): > 20 h
intradermal levels (human skin [12]): substantial intradermal levels
time of peak uptake into human skin (human skin [12]): 24 h
concentration (human skin [12]; human, skin, topical or ocular): 1360 µM
time of peak uptake into mouse skin (mouse skin [13]): 4 h
concentration at 24 h (in vitro; human): 323000 ng/g
concentration at 4 h (in vitro; mouse): 7.25e+06 ng/g
